In US10718756B2, “Mitochondrial apoptotic sensor” (The Regents of the University of California, priority 2016, dated 2020):

Experiments:
[1] = tested on: isolated mitochondria (HeLa and RS4;11 cells); assay: Graphene sensor measurement of extra-mitochondrial buffer pH of tethered isolated mitochondria; set-up: species or system mammalian
Description: Here, is presented an electronic method to detect extra-mitochondrial pH of isolated mitochondria, based on tethering the mitochondria to one-atom thin graphene. The mitochondria are tethered via graphene bound antibodies which recognize the mitochondrial outer membrane protein, TOM20. Graphene is an excellent conductor and changes in the pH surrounding the mitochondria can change the graphene conductance and be detected electrically. Being optically transparent, the graphene layer also permits optical interrogation of the mitochondria concurrent with analysis of ionic changes.
An isolation buffer containing 225 mM mannitol, 75 mM sucrose, 0.5 mM EGTA, 20 mM HEPES, 0.5% (w/v) BSA, 1× protease inhibitor, pH 7.2 with 1 M KOH was used. […]
After mitochondria isolation, about 6 μg of mitochondrial protein of isolated mitochondria was loaded to a graphene device and incubated for 15 min at room temperature. […] The electrical measurement of Ids versus time and the fluorescence time-lapse measurement of TMRE signal were collected. […] In contrast, fluorescence images were taken once every 5 s for the experiments with CCCP or every 2 min for the experiments with BIM-BH3. […]
Control experiments were carried out in a similar manner with the only difference being the lack of isolated mitochondria. Software was used to analyze all electrical data and the fluorescence data that were exported from ImageJ software. […]

[2] = tested on: isolated mitochondria (HeLa and RS4;11 cells); assay: TMRE fluorescence measurement of inner membrane potential (ΔΨm) of tethered isolated mitochondria; set-up: species or system mammalian; settings: TMRE signal
Method: Before isolation, the confluent cells were stained with 100 nM MITOTRACKER™ Green FM and 40 nM TMRE for 1 hour. Subsequent isolation steps used solutions with 40 nM TMRE because TMRE is a potentiometric dye, which fluctuates in and out of the mitochondria depending on their inner membrane potential. 40 nM was determined as the optimal concentration. Using an inverted microscope with two LED excitation sources (490 nm & 565 nm the red and green fluorescence signals from the MITOTRACKER™ and TMRE were visualized with 20× objective at 200 μm×300 μm, exposure time one second. To process and analyze the images, ImageJ software was used. For the entire field of view analysis, fluorescence intensity was measured from the field of view. In contrast, for single mitochondrion analysis, regions of interest enclosing the mitochondria were defined and three more identical copies of that region of interest were used to define the background noise. Fluorescence signal of the mitochondria was assigned as the measured signal subtracting the noise average. […] The electrical measurement of Ids versus time and the fluorescence time-lapse measurement of TMRE signal were collected. […] In contrast, fluorescence images were taken once every 5 s for the experiments with CCCP or every 2 min for the experiments with BIM-BH3. […]

[3] = exogenous agent, after BIM-BH3 induced MOMP

| Molecule | buffer pH (pHbuffer) ([1]; agent added to mitochondria on graphene device in KCl buffer with 5 mM succinate, 2 μM rotenone) | ΔΨm ([2]; agent added to mitochondria on graphene device in KCl buffer) | buffer acidification after BIM-BH3 induced MOMP [1, 3] | ΔΨm after BIM-BH3 induced MOMP [2, 3] |
| --- | --- | --- | --- | --- |
| N#CC(C#N)=NNc1cccc(Cl)c1 [CCCP] | increase | decrease | – | – |
| cytochrome c [cytc] | – | – | blocks buffer acidification | rescues |
